Patent publication US10093713B2, “GIP-GLP-1 dual agonist compounds and methods” (priority 2013, dated 2018)
Read-outs that look alike come from different tables or passages of the source. *1 amine or outer side, *2 acyl side, *3 side chain or, on linkers, in order; H or OH if unused. Where a SMILES comes first, the peptide text is derived from it. Side-chain parts run from the residue outwards. [ ]: non-standard residue; d: D form. The star is where a group is joined. C20 diacid = O=C(O)CCCCCCCCCCCCCCCCCCC(=O)*; C18 diacid = O=C(O)CCCCCCCCCCCCCCCCC(=O)*; γGlu = O=C(O)[C@H](CCC(=O)[*:2])N[*:1]; AEEA = NCCOCCOCC(=O)O; Aib = CC(C)(N)C(=O)O

How the values were obtained:
[1] = target: T1, human GIP R (Homo sapiens, UniProt P48546); experiment: Human GIP receptor (GIP R) activity assay, cAMP induction (AlphaScreen) in HEK293 cells; assay type: cell-based; conditions: read-out: hGIP-R cAMP EC50 average value
T1 construct: expressed in transfected cells
T1 sequence (P48546 22-466): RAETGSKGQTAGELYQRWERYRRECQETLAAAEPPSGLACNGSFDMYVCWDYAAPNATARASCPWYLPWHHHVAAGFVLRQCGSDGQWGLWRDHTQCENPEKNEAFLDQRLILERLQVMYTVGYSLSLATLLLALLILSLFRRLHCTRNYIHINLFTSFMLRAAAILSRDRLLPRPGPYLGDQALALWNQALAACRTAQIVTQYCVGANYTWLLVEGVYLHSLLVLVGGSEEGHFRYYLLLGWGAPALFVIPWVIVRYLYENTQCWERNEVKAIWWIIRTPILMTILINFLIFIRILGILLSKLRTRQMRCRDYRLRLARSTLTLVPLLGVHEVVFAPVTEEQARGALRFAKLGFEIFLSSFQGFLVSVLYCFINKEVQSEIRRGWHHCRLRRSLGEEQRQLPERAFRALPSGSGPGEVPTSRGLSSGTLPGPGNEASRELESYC
Method in brief: (§1)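 Stable HEK293 clones expressing human GIP R or GLP-1 R, seeded 1 day before; cells washed in Tyrode's buffer (10 mM HEPES, pH 7.4), stimulated, then lysed. cAMP measured by AlphaScreen bead competition (1 h, room temperature, dark). EC50 = concentration giving half-maximal cAMP elevation, from curves of absolute cAMP (nM) vs log concentration.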

[2] = target: T2, human GLP-1 R (Homo sapiens, UniProt P43220); experiment: Human GLP-1 receptor (GLP-1 R) activity assay, cAMP induction (AlphaScreen) in HEK293 cells; assay type: cell-based
T2 construct: expressed in transfected cells
Method in brief: as §1

[3] = Pharmacokinetics of selected compounds in mice; assay type: in vivo, C57BL/6J mice; conditions: mouse, plasma; for bioavailability: subcutaneous, AUCinf (s.c.)/AUCinf (i.v.)x100, values marked * capped to 100%
Method: Pharmacokinetics of Selected Compounds in Mice
C57BL/6J mice (males with a body weight of approximately 25 g) were given either a single subcutaneous (s.c.) bolus or a single intravenous (i.v.) bolus of each peptide to be tested.
Following s.c. administration of the selected compounds (50, 100 or 200 nmol/kg), blood samples were drawn at 8 (eight) timepoints up to 72 hours post-dose. Following i.v. administration of the selected compounds (50, 100 or 200 nmol/kg), blood samples were drawn at 8 (eight) timepoints up to 48 hours post-dose. Blood samples were drawn by sublingual bleeding. The dosing vehicle was a phosphate buffer containing mannitol (pH 7.5).
At each sampling time point, samples from two mice were drawn, i.e. 16 mice were included for each compound and each administration route. The mice were euthanized immediately after blood sampling by cervical dislocation. Plasma samples were analyzed after solid phase extraction (SPE) or protein precipitation followed by liquid chromatography mass spectrometry (LC-MS/MS). Mean plasma concentrations were used for calculation of the pharmacokinetic parameters using the non-compartmental approach in Phoenix WinNonlin 6.3. Plasma terminal elimination half-life (T½) was determined as […] where λz is the magnitude of the slope of the log linear regression of the log concentration versus time profile during the terminal phase. Bioavailability was determined as AUCinf (s.c.)/AUCinf (i.v.)×100, where AUCinf is the area under the plasma concentration−time curve extrapolated to infinity (AUCinf=AUClast+Clast/λz, where Clast is the last observed plasma concentration). Tmax is the post-dose time where the maximal plasma concentration was observed.

[4] = Table 2, HEK293 cells expressing human GIP R
[5] = Table 2a, secondary assay study
[6] = Table 3, most comprehensive data
[7] = Table 2, HEK293 cells expressing human GLP-1 R, read-out: hGLP1-R cAMP EC50 average value
[8] = Table 2a, secondary assay study, read-out: hGLP1-R cAMP EC50 average value
[9] = Table 3, most comprehensive data, read-out: hGLP-1-R cAMP EC50 average value
[10] = male, C57BL/6J, iv, single i.v. bolus, read-out: T½ terminal elimination half-life, i.v. (converted)
[11] = male, C57BL/6J, sc, single s.c. bolus
[12] = male, C57BL/6J, sc, single s.c. bolus, read-out: T½ terminal elimination half-life, s.c. (converted)

T2 sequence (P43220 24-463): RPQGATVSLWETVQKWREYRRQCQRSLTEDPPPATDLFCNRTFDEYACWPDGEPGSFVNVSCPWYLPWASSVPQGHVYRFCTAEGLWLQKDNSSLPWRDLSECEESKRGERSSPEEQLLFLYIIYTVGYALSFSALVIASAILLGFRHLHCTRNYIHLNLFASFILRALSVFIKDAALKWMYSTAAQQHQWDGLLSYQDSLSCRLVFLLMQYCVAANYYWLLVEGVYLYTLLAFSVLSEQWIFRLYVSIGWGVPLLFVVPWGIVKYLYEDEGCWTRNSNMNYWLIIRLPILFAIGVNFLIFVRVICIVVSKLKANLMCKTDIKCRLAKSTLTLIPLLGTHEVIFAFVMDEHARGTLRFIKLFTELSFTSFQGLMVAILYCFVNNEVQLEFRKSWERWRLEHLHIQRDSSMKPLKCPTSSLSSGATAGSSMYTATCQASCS

SMILES	EC50 [1, 4]	EC50 [1, 5]	EC50 [1, 6]	EC50 [2, 7]	EC50 [2, 8]	EC50 [2, 9]	half-life [3, 10]	bioavailability ([3]; male, C57BL/6J)	Tmax [3, 11]	half-life [3, 12]	half-life ([3]; iv, single i.v. bolus, read-out: T½ terminal elimination half-life, i.v. (converted))	bioavailability [3]	Tmax ([3]; sc, single s.c. bolus)	half-life ([3]; sc, single s.c. bolus, read-out: T½ terminal elimination half-life, s.c. (converted))
CC[C@H](C)[C@H](NC(=O)[C@H](CO)NC(=O)[C@H](Cc1ccc(O)cc1)NC(=O)[C@H](CC(=O)O)NC(=O)[C@H](CO)NC(=O)[C@@H](NC(=O)[C@H](Cc1ccccc1)NC(=O)[C@@H](NC(=O)CNC(=O)[C@H](CCC(=O)O)NC(=O)C(C)(C)NC(=O)[C@@H](N)Cc1ccc(O)cc1)[C@@H](C)O)[C@@H](C)O)C(=O)N[C@@H](Cc1ccc(O)cc1)C(=O)N[C@@H](CC(C)C)C(=O)N[C@@H](CC(=O)O)C(=O)N[C@@H](CCCCN)C(=O)N[C@@H](CCCCNC(=O)COCCOCCNC(=O)COCCOCCNC(=O)CC[C@H](NC(=O)CCCCCCCCCCCCCCCCC(=O)O)C(=O)O)C(=O)N[C@@H](C)C(=O)N[C@@H](CCC(N)=O)C(=O)N[C@@H](CCCNC(=N)N)C(=O)N[C@@H](C)C(=O)N[C@@H](Cc1ccccc1)C(=O)N[C@H](C(=O)N[C@@H](CCC(=O)O)C(=O)N[C@@H](Cc1c[nH]c2ccccc12)C(=O)N[C@@H](CC(C)C)C(=O)N[C@@H](CC(C)C)C(=O)N[C@@H](C)C(=O)N[C@@H](CCC(N)=O)C(=O)NCC(=O)N1CCC[C@H]1C(=O)N[C@@H](CO)C(=O)N[C@@H](CO)C(=O)NCC(=O)N[C@@H](C)C(=O)N1CCC[C@H]1C(=O)N1CCC[C@H]1C(=O)N1CCC[C@H]1C(=O)N[C@@H](CO)C(N)=O)C(C)C [Compound 1] (H-Y[Aib]EGTFTSDYSIYLDKK([AEEA-AEEA-γGlu-C18 diacid])AQRAFVEWLLAQGPSSGAPPPS-NH2)	5.5 pM	6 pM	6 pM	12 pM	15 pM	15 pM	10.8 h	90%	6 h	9.1 h				
CC[C@H](C)[C@H](NC(=O)[C@H](CO)NC(=O)[C@H](Cc1ccc(O)cc1)NC(=O)[C@H](CC(=O)O)NC(=O)[C@H](CO)NC(=O)[C@@H](NC(=O)[C@H](Cc1ccccc1)NC(=O)[C@@H](NC(=O)CNC(=O)[C@H](CCC(=O)O)NC(=O)C(C)(C)NC(=O)[C@@H](N)Cc1ccc(O)cc1)[C@@H](C)O)[C@@H](C)O)C(=O)N[C@@H](Cc1ccc(O)cc1)C(=O)N[C@@H](CC(C)C)C(=O)N[C@@H](CC(=O)O)C(=O)N[C@@H](CCCCN)C(=O)N[C@@H](CCCCNC(=O)COCCOCCNC(=O)COCCOCCNC(=O)CC[C@H](NC(=O)CCCCCCCCCCCCCCCCCCC(=O)O)C(=O)O)C(=O)N[C@@H](C)C(=O)N[C@@H](CCC(N)=O)C(=O)N[C@@H](CCCNC(=N)N)C(=O)N[C@@H](C)C(=O)N[C@@H](Cc1ccccc1)C(=O)N[C@H](C(=O)N[C@@H](CCC(=O)O)C(=O)N[C@@H](Cc1c[nH]c2ccccc12)C(=O)N[C@@H](CC(C)C)C(=O)N[C@@H](CC(C)C)C(=O)N[C@@H](C)C(=O)N[C@@H](CCC(N)=O)C(=O)NCC(=O)N1CCC[C@H]1C(=O)N[C@@H](CO)C(=O)N[C@@H](CO)C(=O)NCC(=O)N[C@@H](C)C(=O)N1CCC[C@H]1C(=O)N1CCC[C@H]1C(=O)N1CCC[C@H]1C(=O)N[C@@H](CO)C(N)=O)C(C)C [Compound 2] (H-Y[Aib]EGTFTSDYSIYLDKK([AEEA-AEEA-γGlu-C20 diacid])AQRAFVEWLLAQGPSSGAPPPS-NH2)	4.9 pM	8 pM	8 pM	8.3 pM	11 pM	11 pM	16.6 h	83%	6 h	16.5 h				
CC[C@H](C)[C@H](NC(=O)[C@H](CO)NC(=O)[C@H](Cc1ccc(O)cc1)NC(=O)[C@H](CC(=O)O)NC(=O)[C@H](CO)NC(=O)[C@@H](NC(=O)[C@H](Cc1ccccc1)NC(=O)[C@@H](NC(=O)CNC(=O)[C@H](CCC(=O)O)NC(=O)C(C)(C)NC(=O)[C@@H](N)Cc1ccc(O)cc1)[C@@H](C)O)[C@@H](C)O)C(=O)N[C@@H](Cc1ccc(O)cc1)C(=O)N[C@@H](CC(C)C)C(=O)N[C@@H](CC(=O)O)C(=O)N[C@@H](CCCCN)C(=O)N[C@@H](CCCCNC(=O)CC[C@H](NC(=O)CCCCCCCCCCCCCCCCC(=O)O)C(=O)O)C(=O)N[C@@H](C)C(=O)N[C@@H](CCC(N)=O)C(=O)N[C@@H](CCCNC(=N)N)C(=O)N[C@@H](C)C(=O)N[C@@H](Cc1ccccc1)C(=O)N[C@H](C(=O)N[C@@H](CCC(=O)O)C(=O)N[C@@H](Cc1c[nH]c2ccccc12)C(=O)N[C@@H](CC(C)C)C(=O)N[C@@H](CC(C)C)C(=O)N[C@@H](C)C(=O)N[C@@H](CCC(N)=O)C(=O)NCC(=O)N1CCC[C@H]1C(=O)N[C@@H](CO)C(=O)N[C@@H](CO)C(=O)NCC(=O)N[C@@H](C)C(=O)N1CCC[C@H]1C(=O)N1CCC[C@H]1C(=O)N1CCC[C@H]1C(=O)N[C@@H](CO)C(N)=O)C(C)C [Compound 3] (H-Y[Aib]EGTFTSDYSIYLDKK([γGlu-C18 diacid])AQRAFVEWLLAQGPSSGAPPPS-NH2)	8.6 pM	9 pM	9 pM	11 pM	11 pM		9.1 h	89%	8 h					
CC[C@H](C)[C@H](NC(=O)[C@H](CO)NC(=O)[C@H](Cc1ccc(O)cc1)NC(=O)[C@H](CC(=O)O)NC(=O)[C@H](CO)NC(=O)[C@@H](NC(=O)[C@H](Cc1ccccc1)NC(=O)[C@@H](NC(=O)CNC(=O)[C@H](CCC(=O)O)NC(=O)C(C)(C)NC(=O)[C@@H](N)Cc1ccc(O)cc1)[C@@H](C)O)[C@@H](C)O)C(=O)N[C@@H](Cc1ccc(O)cc1)C(=O)N[C@@H](CC(C)C)C(=O)N[C@@H](CC(=O)O)C(=O)N[C@@H](CCCCN)C(=O)N[C@@H](CCCCNC(=O)CNC(=O)CNC(=O)[C@H](CO)NC(=O)CNC(=O)[C@H](CO)NC(=O)CNC(=O)CC[C@H](NC(=O)CCCCCCCCCCCCCCCCC(=O)O)C(=O)O)C(=O)N[C@@H](C)C(=O)N[C@@H](CCC(N)=O)C(=O)N[C@@H](CCCNC(=N)N)C(=O)N[C@@H](C)C(=O)N[C@@H](Cc1ccccc1)C(=O)N[C@H](C(=O)N[C@@H](CCC(=O)O)C(=O)N[C@@H](Cc1c[nH]c2ccccc12)C(=O)N[C@@H](CC(C)C)C(=O)N[C@@H](CC(C)C)C(=O)N[C@@H](C)C(=O)N[C@@H](CCC(N)=O)C(=O)NCC(=O)N1CCC[C@H]1C(=O)N[C@@H](CO)C(=O)N[C@@H](CO)C(=O)NCC(=O)N[C@@H](C)C(=O)N1CCC[C@H]1C(=O)N1CCC[C@H]1C(=O)N1CCC[C@H]1C(=O)N[C@@H](CO)C(N)=O)C(C)C [Compound 4]	8.7 pM	9 pM	9 pM	10 pM							8.7 h	100%	6 h	10.8 h
